We go through 15 compounds from ChEMBL document CHEMBL4304805, “Antibacterial activity of 2-amino-4-hydroxypyrimidine-5-carboxylates and binding to Burkholderia pseudomallei 2-C-methyl-d-erythritol-2,4-cyclodiphosphate synthase” (Bioorg Med Chem Lett, 2019).

Each structure is given as a SMILES string.

Common to all, as to assay type: functional
Holding throughout (details): read-out: DIZ

For one assay, the system named is Bacillus cereus. The assay is described as follows: Antibacterial activity against Bacillus cereus at 0.5 mM by Kirby Bauer disk diffusion method. (Agar diffusion results depend on both activity and mobility in agar.)
In assay [1] the test system is Corynebacterium pseudodiphtheriticum. The experiment in a line: Antibacterial activity against Corynebacterium pseudodiphtheriticum at 0.5 mM by Kirby Bauer disk diffusion method.
For assay [2], the system named is Burkholderia thailandensis. The experiment in a line: Antibacterial activity against Burkholderia thailandensis at 0.5 mM by Kirby Bauer disk diffusion method.
The test system of another assay is Micrococcus luteus. The experiment in a line: Antibacterial activity against Micrococcus luteus at 0.5 mM by Kirby Bauer disk diffusion method.
A further assay relates to Pseudomonas aeruginosa. The assay is described as follows: Antibacterial activity against Pseudomonas aeruginosa at 0.5 mM by Kirby Bauer disk diffusion method.
In another assay the test system is Klebsiella pneumoniae. The experiment in a line: Antibacterial activity against Klebsiella pneumoniae at 0.5 mM by Kirby Bauer disk diffusion method.
The test system of the next assay is Corynebacterium xerosis. The assay is described as follows: Antibacterial activity against Corynebacterium xerosis at 0.5 mM by Kirby Bauer disk diffusion method.
The test system of a further assay is Escherichia coli. The assay is described as follows: Antibacterial activity against Escherichia coli at 0.5 mM by Kirby Bauer disk diffusion method.
Assay [3] relates to Mycolicibacterium smegmatis. The assay is described as follows: Antibacterial activity against Mycobacterium smegmatis at 0.5 mM by Kirby Bauer disk diffusion method.

In the case of `CCOC(=O)c1cnc(Nc2ccc(-c3ccccc3)cc2)nc1O`, the zone of inhibition at 500 µM came to 11 mm with Bacillus cereus; 0 mm in [1]; 0 mm in [2]; 0 mm in the assay on Micrococcus luteus; 0 mm with Pseudomonas aeruginosa; 0 mm in the assay on Klebsiella pneumoniae. Further, the zone of inhibition at 500 µM (in the assay with Corynebacterium xerosis; in the assay on Escherichia coli; in assay [3]) was 0 mm throughout.
On to `O=C(O)c1cnc(Nc2ccc3cn[nH]c3c2)nc1O`, for which the zone of inhibition at 500 µM came out at 9 mm with Bacillus cereus; 0 mm in assay [1]; 0 mm in [2]; 0 mm in the assay on Micrococcus luteus; 0 mm in the assay with Pseudomonas aeruginosa; 9 mm with Klebsiella pneumoniae. Besides, the zone of inhibition at 500 µM was 0 mm in the assay with Corynebacterium xerosis, 0 mm in the assay on Escherichia coli and 16 mm in assay [3].
`O=C(O)c1cnc(NCc2cc(Cl)ccc2Cl)nc1O`: the zone of inhibition at 500 µM was 10 mm with Bacillus cereus; 10 mm in assay [1]; 10 mm in [2]; 0 mm in the assay with Micrococcus luteus; 9 mm in the assay with Pseudomonas aeruginosa; 8 mm with Klebsiella pneumoniae. Further, the zone of inhibition at 500 µM with Corynebacterium xerosis was found to be 0 mm; in the assay on Escherichia coli, 11 mm; in assay [3], 15 mm.
As for `O=C(O)c1cnc(NCCc2ccccn2)nc1O`, the zone of inhibition at 500 µM in the assay on Bacillus cereus turned out to be 7 mm; in [1] it was 0 mm; in assay [2] it was 10 mm; in the assay with Micrococcus luteus, 15 mm; in the assay with Pseudomonas aeruginosa, 17 mm; in the assay with Klebsiella pneumoniae, 7 mm. In addition, the zone of inhibition at 500 µM with Corynebacterium xerosis came out at 0 mm; in the assay on Escherichia coli, 0 mm; in [3] it was 17 mm.
On to `CCOC(=O)c1cnc(Nc2ccc3cn[nH]c3c2)nc1O`, for which the zone of inhibition at 500 µM in the assay with Bacillus cereus turned out to be 10 mm; in assay [1], 0 mm; in [2], 11 mm; in the assay with Micrococcus luteus it was 0 mm; in the assay with Pseudomonas aeruginosa, 12 mm; in the assay on Klebsiella pneumoniae, 12 mm. The zone of inhibition at 500 µM with Corynebacterium xerosis was 7 mm; in the assay with Escherichia coli, 7 mm; in assay [3], 17 mm.
With `CCOC(=O)c1cnc(NCc2cccc(Cl)c2)nc1O`, the zone of inhibition at 500 µM in the assay on Bacillus cereus is 0 mm; in assay [1], 0 mm; in assay [2], 11 mm; in the assay with Micrococcus luteus it was 0 mm; in the assay with Pseudomonas aeruginosa, 0 mm; with Klebsiella pneumoniae, 0 mm. For the same compound, the zone of inhibition at 500 µM in the assay with Corynebacterium xerosis came to 0 mm; in the assay on Escherichia coli it was 0 mm; in assay [3], 14 mm.
On to `CCOC(=O)c1cnc(Nc2ccc3[nH]ncc3c2)nc1O`, for which the zone of inhibition at 500 µM in the assay with Bacillus cereus came to 10 mm; in [1], 0 mm; in [2], 8 mm; with Micrococcus luteus it was 0 mm; in the assay on Pseudomonas aeruginosa, 10 mm; with Klebsiella pneumoniae, 0 mm. The zone of inhibition at 500 µM in the assay with Corynebacterium xerosis is 0 mm; with Escherichia coli, 0 mm; in [3] it was 10 mm.
Turning to `Nc1ccc(C(=O)O)c(O)c1` [AMINOSALICYLIC ACID], the zone of inhibition at 500 µM in the assay on Bacillus cereus was determined as 9 mm; in [1], 0 mm; in assay [2] it was 12 mm; with Micrococcus luteus, 0 mm; in the assay on Pseudomonas aeruginosa, 0 mm; with Klebsiella pneumoniae it was 0 mm. In addition, the zone of inhibition at 500 µM with Corynebacterium xerosis worked out at 0 mm; in the assay on Escherichia coli, 11 mm; in [3], 14 mm.
Consider `CCOC(=O)c1cnc(Nc2ccc(N3CCOCC3)cc2)nc1O`, for which the zone of inhibition at 500 µM in the assay on Bacillus cereus is 6 mm; in assay [1] it was 0 mm; in assay [2], 9 mm; with Micrococcus luteus it was 0 mm; in the assay with Pseudomonas aeruginosa it was 11 mm; with Klebsiella pneumoniae it was 8 mm. In addition, the zone of inhibition at 500 µM with Corynebacterium xerosis stood at 0 mm; in the assay with Escherichia coli, 0 mm; in assay [3] it was 14 mm.
For `O=C(O)c1cnc(Nc2ccc(Br)cc2)nc1O`, the zone of inhibition at 500 µM in the assay with Bacillus cereus amounted to 12 mm; in assay [1] it was 16 mm; in assay [2] it was 13 mm; in the assay with Micrococcus luteus, 0 mm; in the assay on Pseudomonas aeruginosa, 0 mm; in the assay with Klebsiella pneumoniae, 12 mm. In addition, the zone of inhibition at 500 µM in the assay on Corynebacterium xerosis was 16 mm; with Escherichia coli, 15 mm; in assay [3] it was 17 mm.
Take `CCOC(=O)c1cnc(Nc2ccc(-c3ccncc3)cc2)nc1O`: the zone of inhibition at 500 µM (in the assay on Bacillus cereus; in [1]; in assay [2]; with Micrococcus luteus; with Pseudomonas aeruginosa; in the assay on Klebsiella pneumoniae) was 0 mm each time. In addition, the zone of inhibition at 500 µM worked out at 0 mm in the assay on Corynebacterium xerosis, 0 mm in the assay with Escherichia coli and 16 mm in [3].
Regarding `CCOC(=O)c1cnc(NCc2ccccc2Cl)nc1O`, the zone of inhibition at 500 µM with Bacillus cereus worked out at 10 mm; in [1], 0 mm; in assay [2] it was 0 mm; in the assay on Micrococcus luteus, 15 mm; in the assay with Pseudomonas aeruginosa it was 0 mm; in the assay with Klebsiella pneumoniae, 0 mm. For the same compound, the zone of inhibition at 500 µM (with Corynebacterium xerosis; with Escherichia coli; in assay [3]) was 0 mm throughout.
Take `CCOC(=O)c1cnc(NCCc2ccc(Cl)c(Cl)c2)nc1O`: the zone of inhibition at 500 µM with Bacillus cereus was determined as 10 mm; in [1] it was 0 mm; in assay [2] it was 0 mm; in the assay on Micrococcus luteus, 0 mm; in the assay with Pseudomonas aeruginosa, 0 mm; with Klebsiella pneumoniae, 0 mm. Further, the zone of inhibition at 500 µM (in the assay with Corynebacterium xerosis; with Escherichia coli; in assay [3]) was 0 mm throughout.
In the case of `O=C(O)c1cnc(NCC2CCCO2)nc1O` (stereo not given), the zone of inhibition at 500 µM was 0 mm in the assay on Bacillus cereus; 0 mm in [1]; 7 mm in assay [2]; 0 mm with Micrococcus luteus; 0 mm in the assay with Pseudomonas aeruginosa; 0 mm in the assay on Klebsiella pneumoniae. For the same compound, the zone of inhibition at 500 µM (with Corynebacterium xerosis; with Escherichia coli; in assay [3]) was 0 mm each time.
With `O=C(O)c1cnc(Nc2ccc(-c3ccccc3)cc2)nc1O`, the zone of inhibition at 500 µM in the assay with Bacillus cereus is 12 mm; in assay [1], 0 mm; in assay [2] it was 0 mm; in the assay with Micrococcus luteus, 0 mm; with Pseudomonas aeruginosa, 0 mm; with Klebsiella pneumoniae, 15 mm. Besides, the zone of inhibition at 500 µM was found to be 0 mm in the assay with Corynebacterium xerosis, 0 mm with Escherichia coli and 15 mm in assay [3].
